Laboratory results published in patent US20130345182A1, “STABLE COMPOSITION COMPRISING CHOLESTEROL-LOWERING AGENTS, […] AGENTS AND […] AGENTS” (Silanes Laboratories, priority 2010, published 2013).

Assays:
[1] = Long-term stability test; format: physicochemical
Protocol: The compositions of the present invention can be formulated into tablets which are packed in Aluminum-Aluminum blisters and subjected to stability studies according to ICH international guidelines (International Conference of Harmonization, Guideline for Industry, Stability Testing of New Drug Substances and Products. ICH Q1A (R2) February 2003).
Long-term stability studies were conducted on a batch from the composition of the present invention manufactured in accordance with that described in Example 1 but with the addition of coloring agent; these studies were conducted in selected conditions of temperature and humidity, which were 30° C. and 75% RH, and a temperature of 25° C. and 60% RH, showing that the pharmaceutical composition is stable according to the results exemplified in Table 3 up to 9 months, although the study was conducted under the regulatory guidelines for a longer period.

[2] = Dissolution profile of tablets; format: physicochemical
Description: Assessment of the composition of the present invention formulated into tablets was made, as described in Example 1 to determine their dissolution profiles, according to methods widely known in the industry, in order to evaluate the release of drugs.

[3] = Determination of drugs content stability under extreme storage conditions; format: physicochemical
Protocol: The compositions from Example 1 were subjected to extreme storage conditions.
These conditions were maintained for a month, as follows: temperature 40° C. and 75% relative humidity (RH) and at temperature of 60° C. and 85% RH.
Then, the determination of the contents of each of the drugs was performed.

[4] = clinical; details: human
[5] = patients with type 2 diabetes mellitus and proteinuria; cited from earlier work
[6] = cited from earlier work
[7] = 0 months, 30° C./75% RH or 25° C./60% RH (not said which)

Row | Compound | Dissolution ([1]; 0 months) [%] | Content [1, 7] [%] | Content ([1]; 1 month) [%] | Dissolution ([1]; 1 month) [%] | Content ([1]; 3 months) [%] | Dissolution ([1]; 3 months) [%] | Content ([1]; 6 months) [%] | Dissolution ([1]; 6 months) [%] | Content ([1]; 9 months) [%] | Dissolution ([1]; 9 months) [%] | Average of % dissolved ([2]; 10 minutes) [%] | Average of % dissolved ([2]; 20 minutes) [%] | Average of % dissolved ([2]; 30 minutes) [%] | Average of % dissolved ([2]; 40 minutes) [%] | Average of % dissolved ([2]; 50 minutes) [%] | Average of % dissolved ([2]; 60 minutes) [%] | Drug content ([3]; 1 Month 40° C./75% RH) [%] | Drug content ([3]; 1 Month 60° C./85% RH) [%] | Drug content ([3]; Initial) [%] | concentration at 0 h ([4]; in vivo) [ng/mL] | also measured
1 | CC(=O)Oc1ccccc1C(=O)O [Acetylsalicylic acid, acetylsalicylic acid] | 88.75 | 98.70 | 101.00 | 78.38 | 98.54 | 83.57 | 98.67 | 87.60 | 95.14 | 81.66 | 12 | 34 | 56 | 73 | 84 | 88 | 96.45 | 96.05 | 94.63 | – | –
2 | CCCCc1nc(Cl)c(CO)n1Cc1ccc(-c2ccccc2-c2nn[nH]n2)cc1 [Losartan potassium, losartan potassium] | 103.01 | 100.32 | 99.24 | 95.28 | 98.50 | 96.38 | 99.85 | 92.77 | 95.33 | 91.66 | 60 | 100 | 102 | 102 | 103 | 104 | 96.31 | 96.64 | 95.88 | 0 | concentration at 0.17 h ([4]; in vivo): 39.7 ng/mL; concentration at 0.33 h ([4]; in vivo): 137 ng/mL; concentration at 0.5 h ([4]; in vivo): 191 ng/mL; concentration at 0.75 h ([4]; in vivo): 176 ng/mL; concentration at 1 h ([4]; in vivo): 140 ng/mL; concentration at 2 h ([4]; in vivo): 113 ng/mL; concentration at 2.5 h ([4]; in vivo): 96.3 ng/mL; concentration at 3 h ([4]; in vivo): 81.5 ng/mL; concentration at 4 h ([4]; in vivo): 57.5 ng/mL; concentration at 6 h ([4]; in vivo): 38.7 ng/mL; concentration at 7 h ([4]; in vivo): 21.8 ng/mL; concentration at 8 h ([4]; in vivo): 12.4 ng/mL; concentration at 10 h ([4]; in vivo): 6.01 ng/mL; concentration at 12 h ([4]; in vivo): 3.06 ng/mL; Progression of renal disease [5]: delays the progression of renal disease
3 | CC[C@H](C)C(=O)O[C@H]1C[C@H](O)C=C2C=C[C@H](C)[C@H](CC[C@@H](O)C[C@@H](O)CC(=O)O)[C@H]21 [Pravastatin sodium, pravastatin sodium] | 99.79 | 98.89 | 98.04 | 94.77 | 95.83 | 98.09 | 98.77 | 95.97 | 99.97 | 93.37 | 61 | 104 | 105 | 106 | 107 | 108 | 98.72 | 98.23 | 99.76 | 0 | Incidence of type 2 diabetes mellitus, lower than in placebo group ([6]; patients administered pravastatin vs placebo): 30%; Reduction of incidence of cerebral thrombosis ([6]; patients): ≤ 20%; concentration at 0.17 h ([4]; in vivo): 2.8 ng/mL; concentration at 0.33 h ([4]; in vivo): 24.9 ng/mL; concentration at 0.5 h ([4]; in vivo): 72.6 ng/mL; concentration at 0.75 h ([4]; in vivo): 113 ng/mL; concentration at 1 h ([4]; in vivo): 110 ng/mL; concentration at 2 h ([4]; in vivo): 77 ng/mL; concentration at 2.5 h ([4]; in vivo): 58 ng/mL; concentration at 3 h ([4]; in vivo): 42.5 ng/mL; concentration at 4 h ([4]; in vivo): 25.8 ng/mL; concentration at 6 h ([4]; in vivo): 16.2 ng/mL; concentration at 7 h ([4]; in vivo): 9.73 ng/mL; concentration at 8 h ([4]; in vivo): 13.3 ng/mL; concentration at 10 h ([4]; in vivo): 6.53 ng/mL; concentration at 12 h ([4]; in vivo): 1.71 ng/mL; concentration at 24 h ([4]; in vivo): 1.27 ng/mL
4 | O=C(O)c1ccccc1O [Salicylic acid] | – | – | – | – | – | – | – | – | – | – | – | – | – | – | – | – | – | – | – | – | concentration at 0 h ([4]; plasma, oral): 0 ng/mL; concentration at 0.17 h ([4]; plasma, oral): 1.09 ng/mL; concentration at 0.33 h ([4]; plasma, oral): 3.97 ng/mL; concentration at 0.5 h ([4]; plasma, oral): 8.78 ng/mL; concentration at 0.75 h ([4]; plasma, oral): 14.8 ng/mL; concentration at 1 h ([4]; plasma, oral): 21.1 ng/mL; concentration at 2 h ([4]; plasma, oral): 28.8 ng/mL; concentration at 2.5 h ([4]; plasma, oral): 36.5 ng/mL; concentration at 3 h ([4]; plasma, oral): 43.3 ng/mL; concentration at 4 h ([4]; plasma, oral): 49.2 ng/mL; concentration at 6 h ([4]; plasma, oral): 50.2 ng/mL; concentration at 7 h ([4]; plasma, oral): 45.4 ng/mL; concentration at 8 h ([4]; plasma, oral): 25.1 ng/mL; concentration at 10 h ([4]; plasma, oral): 12.5 ng/mL; concentration at 12 h ([4]; plasma, oral): 4.21 ng/mL; concentration at 24 h ([4]; plasma, oral): 1.16 ng/mL
